From US8309546B2, “Morpholinopurine derivatives” (Daiichi Sankyo Company, Limited, priority 2008, dated 2012)
pIC50: −log10 of the molar value.

What was measured:
PI3Kα = PI3Kα (Homo sapiens, UniProt P42336); experiment: PI3K kinase activity inhibition assay; format: biochemical; settings: Kinase-Glo Plus ATP detection, read-out: IC50 against PI3K
Outline: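 PI3Kα (50 nM solution) was reacted with 30 μM ATP and 45 μM PIP2 solutions, each in HEPES pH 7.4 with MgCl2 and DTT, for 2 h at room temperature. Remaining ATP was measured by Kinase-Glo Plus luminescence, and inhibition was derived from ATP consumed. IC50 was taken from curve fitting of the serial dilutions.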

[1] = target: T1, human mTOR (His-tagged mTOR (1362C)) (Homo sapiens, UniProt P42345); experiment: mTOR kinase activity inhibition assay; format: biochemical; settings: HTRF, read-out: IC50 against mTOR
T1 construct: the 1362 to 2549 amino acid portion on the C terminus side of human mTOR; His tag (N); made in house
Outline: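 Crude His-tagged mTOR (aa 1362–2549) from stable HEK293 cells, with 8 μg/ml biotinylated peptide in 50 mM HEPES pH 7.5, 20 mM MnCl2; compound diluted in 20 μM ATP solution, reaction 3 h at room temperature. Phospho-peptide detected by HTRF (anti-phospho-S6K Thr389 cryptate/streptavidin-XL665, overnight at 4°C), 665/620 nm ratio. IC50 derived from curve fit of % inhibition.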

[2] = test system: human endometrial cancer cell strain AN3CA; experiment: Cell growth inhibition test (MTT), AN3CA; format: cell-based; settings: AN3-CA, 72 h, 3 days culture, read-out: concentration exhibiting anti-cell effect (GI50)
Outline: (§1)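 AN3CA, IGROV1 and HT29 seeded at 5000, 1000 and 5000 cells/well; compound added next day, 3 days at 37° C, 5% CO2. MTT 4 h, formazan in DMSO read at 540 nm. GI50 is the concentration giving 50% growth rate (T/C %, corrected for day-of-addition absorbance), interpolated between two bracketing concentrations.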

[3] = test system: human ovary cancer cell strain IGROV1; experiment: Cell growth inhibition test (MTT), IGROV1; format: cell-based; settings: IGROV-1, 72 h, IGROV1, 3 days culture, read-out: concentration exhibiting anti-cell effect (GI50)
Outline: as §1

[4] = test system: human colon cancer cell strain HT29; experiment: Cell growth inhibition test (MTT), HT29; format: cell-based; settings: HT-29, 72 h, HT29, 3 days culture, read-out: concentration exhibiting anti-cell effect (GI50)
Outline: as §1

Sequence of PI3Kα (P42336 whole entry, species assumed): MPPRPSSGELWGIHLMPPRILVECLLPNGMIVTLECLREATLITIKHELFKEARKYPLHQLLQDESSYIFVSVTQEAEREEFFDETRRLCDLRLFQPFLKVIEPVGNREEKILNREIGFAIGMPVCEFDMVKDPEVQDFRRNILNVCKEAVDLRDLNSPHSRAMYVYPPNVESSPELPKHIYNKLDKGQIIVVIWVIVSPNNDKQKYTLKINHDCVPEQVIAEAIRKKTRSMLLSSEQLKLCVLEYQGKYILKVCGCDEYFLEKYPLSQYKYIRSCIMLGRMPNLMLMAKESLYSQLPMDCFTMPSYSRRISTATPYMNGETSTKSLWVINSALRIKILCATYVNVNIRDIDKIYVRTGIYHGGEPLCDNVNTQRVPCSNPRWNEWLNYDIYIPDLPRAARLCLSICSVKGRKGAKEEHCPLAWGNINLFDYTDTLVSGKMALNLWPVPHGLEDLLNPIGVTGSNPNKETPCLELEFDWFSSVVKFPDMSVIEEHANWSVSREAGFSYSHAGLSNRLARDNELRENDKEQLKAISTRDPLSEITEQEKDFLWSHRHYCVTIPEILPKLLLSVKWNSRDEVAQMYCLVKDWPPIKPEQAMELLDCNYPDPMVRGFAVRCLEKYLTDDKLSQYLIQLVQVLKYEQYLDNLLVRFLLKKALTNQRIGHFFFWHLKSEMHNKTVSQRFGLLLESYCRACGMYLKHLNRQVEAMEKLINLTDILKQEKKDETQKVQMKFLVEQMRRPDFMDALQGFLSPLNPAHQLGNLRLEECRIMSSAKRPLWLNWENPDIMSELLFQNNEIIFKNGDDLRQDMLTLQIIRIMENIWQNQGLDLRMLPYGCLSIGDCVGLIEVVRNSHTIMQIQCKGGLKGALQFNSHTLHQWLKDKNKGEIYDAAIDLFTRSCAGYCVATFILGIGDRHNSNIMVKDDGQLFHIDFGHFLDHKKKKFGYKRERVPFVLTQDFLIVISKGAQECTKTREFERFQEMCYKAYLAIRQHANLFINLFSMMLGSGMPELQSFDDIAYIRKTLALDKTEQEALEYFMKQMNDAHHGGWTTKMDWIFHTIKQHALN
Sequence of PI3Kα (P27986 whole entry partner, species assumed): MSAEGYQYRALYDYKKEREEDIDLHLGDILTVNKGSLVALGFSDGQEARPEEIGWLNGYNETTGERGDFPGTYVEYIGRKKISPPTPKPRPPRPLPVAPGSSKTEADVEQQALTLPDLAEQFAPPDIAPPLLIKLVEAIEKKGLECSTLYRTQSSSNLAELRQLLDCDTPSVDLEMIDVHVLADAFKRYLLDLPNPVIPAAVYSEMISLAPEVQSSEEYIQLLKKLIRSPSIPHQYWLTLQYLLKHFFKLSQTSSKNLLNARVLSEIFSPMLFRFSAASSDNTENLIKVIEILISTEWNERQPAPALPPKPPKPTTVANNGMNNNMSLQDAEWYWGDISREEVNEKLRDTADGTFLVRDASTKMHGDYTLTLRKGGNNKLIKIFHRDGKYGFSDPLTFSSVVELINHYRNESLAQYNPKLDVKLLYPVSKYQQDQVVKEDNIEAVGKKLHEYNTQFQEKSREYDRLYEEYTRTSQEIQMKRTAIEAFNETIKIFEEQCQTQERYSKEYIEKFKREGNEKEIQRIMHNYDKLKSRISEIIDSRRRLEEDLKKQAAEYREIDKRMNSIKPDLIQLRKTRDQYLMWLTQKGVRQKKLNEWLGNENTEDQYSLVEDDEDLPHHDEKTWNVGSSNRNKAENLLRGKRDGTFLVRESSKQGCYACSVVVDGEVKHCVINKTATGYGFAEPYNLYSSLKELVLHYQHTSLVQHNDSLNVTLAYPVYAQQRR
T1 sequence (P42345 1362-2549): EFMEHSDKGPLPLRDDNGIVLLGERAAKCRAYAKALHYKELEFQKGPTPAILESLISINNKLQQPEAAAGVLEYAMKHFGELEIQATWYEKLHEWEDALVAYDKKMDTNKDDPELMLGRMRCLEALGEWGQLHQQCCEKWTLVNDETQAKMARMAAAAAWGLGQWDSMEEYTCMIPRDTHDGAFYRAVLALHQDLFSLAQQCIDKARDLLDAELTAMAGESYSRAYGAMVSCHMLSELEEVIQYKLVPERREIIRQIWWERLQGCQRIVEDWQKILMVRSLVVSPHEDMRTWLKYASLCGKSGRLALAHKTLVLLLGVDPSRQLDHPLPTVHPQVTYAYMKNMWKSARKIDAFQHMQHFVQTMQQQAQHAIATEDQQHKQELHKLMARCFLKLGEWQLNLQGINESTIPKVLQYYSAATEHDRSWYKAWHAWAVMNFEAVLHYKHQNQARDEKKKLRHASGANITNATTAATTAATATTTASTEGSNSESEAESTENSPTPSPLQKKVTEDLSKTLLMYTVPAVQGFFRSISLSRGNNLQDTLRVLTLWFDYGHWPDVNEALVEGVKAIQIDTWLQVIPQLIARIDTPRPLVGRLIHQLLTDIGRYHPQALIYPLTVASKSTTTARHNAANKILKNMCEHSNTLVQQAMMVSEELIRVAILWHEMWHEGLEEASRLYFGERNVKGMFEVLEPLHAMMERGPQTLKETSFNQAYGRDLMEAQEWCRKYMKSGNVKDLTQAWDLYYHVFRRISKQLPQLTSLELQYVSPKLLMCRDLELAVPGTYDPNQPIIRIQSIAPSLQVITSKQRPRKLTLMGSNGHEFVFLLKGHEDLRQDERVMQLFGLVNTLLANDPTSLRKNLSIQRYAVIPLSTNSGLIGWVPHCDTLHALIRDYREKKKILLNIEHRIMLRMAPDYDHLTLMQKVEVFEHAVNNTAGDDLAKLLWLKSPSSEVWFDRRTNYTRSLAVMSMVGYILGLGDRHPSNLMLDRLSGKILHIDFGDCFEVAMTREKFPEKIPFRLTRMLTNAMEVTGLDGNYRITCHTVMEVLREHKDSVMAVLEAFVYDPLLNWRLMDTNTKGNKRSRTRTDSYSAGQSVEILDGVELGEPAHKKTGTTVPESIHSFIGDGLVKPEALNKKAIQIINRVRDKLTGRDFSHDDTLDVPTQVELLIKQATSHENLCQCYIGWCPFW

SMILES | pIC50 (PI3Kα) | pIC50 [1] | GI50 [2] [nM] | GI50 [3] [nM] | GI50 [4] [nM]
Cc1nc(N)ncc1-c1nc(N2CCOCC2)c2nc(N3CCC(C(N)=O)CC3)n(CC3CC3)c2n1 [Example 36, 1-[2-(2-Amino-4-methylpyrimidin-5-yl)-9-(cyclopropylmethyl)-6-morpholin-4-yl-9H-purin-8-yl]piperidine-4-carboxamide] | > 8.00 | 6.30 to 7.00 | ≤ 5000 | ≤ 5000 | ≤ 5000
Cc1nc(N)ncc1-c1nc(N2CCOCC2)c2nc(NCCN(C)C)n(CC3CC3)c2n1 [Example 21, N′-[2-(2-Amino-4-methylpyrimidin-5-yl)-9-(cyclopropylmethyl)-6-morpholin-4-yl-9H-purin-8-yl]-N,N-dimethylethane-1,2-diamine] | 7.70 to 8.00 | ≤ 6.30 | ≤ 5000 | ≤ 5000 | ≤ 5000
CNc1ncc(-c2nc(N3CCOCC3)c3nc(N4C[C@@H](C)N[C@@H](C)C4)n(CC4CC4)c3n2)cn1 [Example 16, 5-{9-(Cyclopropylmethyl)-8-(cis-3,5-dimethylpiperazin-1-yl)-6-morpholin-4-yl-9H-purin-2-yl}-N-methylpyrimidin-2-amine] | 7.30 to 7.70 | 7.00 to 7.52 | ≤ 5000 | ≤ 5000 | ≤ 5000
Nc1ncc(-c2nc(N3CCOCC3)c3nc(N4CCOCC4)n(CC4CC4)c3n2)cn1 [Example 20, 5-[9-(Cyclopropylmethyl)-6,8-dimorpholin-4-yl-9H-purin-2-yl]pyrimidin-2-amine] | 7.70 to 8.00 | 7.00 to 7.52 | ≤ 5000 | ≤ 5000 | ≤ 5000
Cc1nc(N)ncc1-c1nc(N2CCOCC2)c2nc(NCCN3CCOCC3)n(CC3CC3)c2n1 [Example 22, 2-(2-Amino-4-methylpyrimidin-5-yl)-9-(cyclopropylmethyl)-6-morpholin-4-yl-N-(2-morpholin-4-ylethyl)-9H-purin-8-amine] | 7.70 to 8.00 | ≤ 6.30 | ≤ 5000 | ≤ 5000 | ≤ 5000
Cc1nc(N)ncc1-c1nc(N2CCOCC2)c2nc(N3CCC(N(C)S(C)(=O)=O)C3)n(CC3CC3)c2n1 (stereo not drawn) [Example 34, N-{1-[2-(2-Amino-4-methylpyrimidin-5-yl)-9-(cyclopropylmethyl)-6-morpholin-4-yl-9H-purin-8-yl]pyrrolidin-3-yl}-N-methylmethanesulfonamide] | 7.70 to 8.00 | 6.30 to 7.00 | ≤ 5000 | ≤ 5000 | ≤ 5000
CC(=O)N1CCN(c2nc3c(N4CCOCC4)nc(-c4cnc(N)nc4)nc3n2CC(F)(F)F)CC1(C)C [Example 122, 5-[8-(4-Acetyl-3,3-dimethylpiperazin-1-yl)-6-morpholin-4-yl-9-(2,2,2-trifluoroethyl)-9H-purin-2-yl]pyrimidin-2-amine] | > 8.00 | > 8.00 | ≤ 5000 | ≤ 5000 | ≤ 5000
CC(C)Cn1c(N2CCN(C(=O)N(C)C)CC2)nc2c(N3CCOCC3)nc(-c3cnc(N)nc3)nc21 [Example 45, 4-[2-(2-Aminopyrimidin-5-yl)-9-isobutyl-6-morpholin-4-yl-9H-purin-8-yl]-N,N-dimethylpiperazine-1-carboxamide] | 7.30 to 7.70 | 7.00 to 7.52 | ≤ 5000 | ≤ 5000 | ≤ 5000
C[C@H]1CN(c2nc3c(N4CCOCC4)nc(-c4cnc(N)nc4)nc3n2CC(F)(F)F)CCN1 [Example 58, 5-{8-[(3S)-3-Methylpiperazin-1-yl]-6-morpholin-4-yl-9-(2,2,2-trifluoroethyl)-9H-purin-2-yl}pyrimidin-2-amine] | > 8.00 | 7.52 to 8.00 | ≤ 5000 | ≤ 5000 | ≤ 5000
CS(=O)(=O)N1CCN(c2nc3c(N4CCOCC4)nc(-c4cnc(N)nc4)nc3n2[C@H]2CCN(S(C)(=O)=O)C2)CC1 [Example 27, 5-{8-[4-(Methylsulfonyl)piperazin-1-yl]-9-[(3S)-1-(methylsulfonyl)pyrrolidin-3-yl]-6-morpholin-4-yl-9H-purin-2-yl}pyrimidin-2-amine] | 7.30 to 7.70 | 7.00 to 7.52 | ≤ 5000 | ≤ 5000 | ≤ 5000
CNc1ncc(-c2nc(N3CCOCC3)c3nc(N4CCN(S(C)(=O)=O)CC4)n(CC4CC4)c3n2)c(C)n1 [Example 43] | 7.70 to 8.00 | 6.30 to 7.00 | ≤ 5000 | ≤ 5000 | ≤ 5000
CNc1ncc(-c2nc(N3CCOCC3)c3nc(N4CCOCC4)n(CC4CC4)c3n2)cn1 [Example 39, 5-[9-(Cyclopropylmethyl)-6,8-dimorpholin-4-yl-9H-purin-2-yl]-N-methylpyrimidin-2-amine] | > 8.00 | 7.00 to 7.52 | ≤ 5000 | ≤ 5000 | ≤ 5000
CC(C)n1c(N2CCN(S(C)(=O)=O)CC2)nc2c(N3CCOCC3)nc(-c3cnc(N)nc3)nc21 [Example 46, 5-{9-Isopropyl-8-[4-(methylsulfonyl)piperazin-1-yl]-6-morpholin-4-yl-9H-purin-2-yl}pyrimidin-2-amine] | 7.30 to 7.70 | 7.00 to 7.52 | ≤ 5000 | ≤ 5000 | ≤ 5000
CC(C)Cn1c(N2C[C@H](C)NC[C@H]2C)nc2c(N3CCOCC3)nc(-c3cnc(N)nc3)nc21 (relative stereo) [Example 50, 5-[8-(trans-2,5-Dimethylpiperazin-1-yl)-9-isobutyl-6-morpholin-4-yl-9H-purin-2-yl]pyrimidin-2-amine] | 7.70 to 8.00 | 7.00 to 7.52 | ≤ 5000 | ≤ 5000 | ≤ 5000

The remaining lines, values ahead:

pIC50 (PI3Kα) | pIC50 [1] | GI50 [2] [nM] | GI50 [3] [nM] | GI50 [4] [nM] | SMILES
7.70 to 8.00 | 7.52 to 8.00 | ≤ 5000 | ≤ 5000 | ≤ 5000 | C[C@@H]1CN(c2nc3c(N4CCOCC4)nc(-c4cnc(N)nc4)nc3n2CC2CC2)C[C@H](C)N1S(C)(=O)=O [Example 38, 5-{9-(Cyclopropylmethyl)-8-[cis-3,5-dimethyl-4-(methylsulfonyl)piperazin-1-yl]-6-morpholin-4-yl-9H-purin-2-yl}pyrimidin-2-amine]
> 8.00 | 7.00 to 7.52 | ≤ 5000 | ≤ 5000 | ≤ 5000 | CC(C)Cn1c(N2CCN[C@H](C)C2)nc2c(N3CCOCC3)nc(-c3cnc(N)nc3)nc21 [Example 52, 5-{9-Isobutyl-8-[(3R)-3-methylpiperazin-1-yl]-6-morpholin-4-yl-9H-purin-2-yl}pyrimidin-2-amine]
> 8.00 | 7.52 to 8.00 | ≤ 5000 | ≤ 5000 | ≤ 5000 | C[C@H]1CN(c2nc3c(N4CCOCC4)nc(-c4cnc(N)nc4)nc3n2CC2CC2)CCN1 [Example 91, 5-{9-(Cyclopropylmethyl)-8-[(3S)-3-methylpiperazin-1-yl]-6-morpholin-4-yl-9H-purin-2-yl}pyrimidin-2-amine]
> 8.00 | > 8.00 | ≤ 5000 | ≤ 5000 | ≤ 5000 | C[C@H]1CN(c2nc3c(N4CCOCC4)nc(-c4cnc(N)nc4)nc3n2CC(F)(F)F)CCN1C(=O)CO [Example 125, 2-{(2S)-4-[2-(2-Aminopyrimidin-5-yl)-6-morpholin-4-yl-9-(2,2,2-trifluoroethyl)-9H-purin-8-yl]-2-methylpiperazin-1-yl}-2-oxoethanol]
> 8.00 | ≤ 6.30 | ≤ 5000 | ≤ 5000 | ≤ 5000 | Cc1nc(N)ncc1-c1nc(N2CCOCC2)c2nc(N3CC[C@H](NS(C)(=O)=O)C3)n(CC3CC3)c2n1 [Example 73, N-{(3S)-1-[2-(2-Amino-4-methylpyrimidin-5-yl)-9-(cyclopropylmethyl)-6-morpholin-4-yl-9H-purin-8-yl]pyrrolidin-3-yl}methanesulfonamide]
7.70 to 8.00 | ≤ 6.30 | ≤ 5000 | ≤ 5000 | ≤ 5000 | Cc1nc(N)ncc1-c1nc(N2CCOCC2)c2nc(N3CCC(NS(C)(=O)=O)C3)n(CC3CC3)c2n1 (stereo not drawn) [Example 35, N-{1-[2-(2-Amino-4-methylpyrimidin-5-yl)-9-(cyclopropylmethyl)-6-morpholin-4-yl-9H-purin-8-yl]pyrrolidin-3-yl}methanesulfonamide]
7.30 to 7.70 | 7.00 to 7.52 | ≤ 5000 | ≤ 5000 | ≤ 5000 | Nc1ncc(-c2nc(N3CCOCC3)c3nc(N4CCOCC4)n(CC4CCOC4)c3n2)cn1 (stereo not drawn) [Example 23, 5-[6,8-Dimorpholin-4-yl-9-(tetrahydrofuran-3-ylmethyl)-9H-purin-2-yl]pyrimidin-2-amine]
